Source: patent US20080076721A1, “Use of branched chain fatty acid amino acid salts and compositions thereof” (priority 2006, published 2008)
“Also recorded” adds a separate entry of the source.

Experiment: L-arginine phytanate method of use: 4-week oral post-workout supplementation in an experienced weight trained person (body weight, bench press)
Assay type: in vivo, human
Excerpt: In this example a experienced weight trained person orally consumes 3 grams of L-arginine phytanate post workout for 4 weeks as a beverage, consumes no supplements for 4 weeks, then orally consumes phytanic acid in the same manner post workout for 4 weeks. The L-arginine phytanate is incorporated into free powder mixture of flavoring agents and palatinose, which is then combined with water. Once in the plasma L-arginine phytanate then exerts a synergistic lean tissue promoting effect due to the anabolic actions of phytanic acid and L-arginine. Phytanic acid activates PPAR alpha, beta/delta, gamma, and increases nitric oxide synthase thus increasing nitric oxide production. This wide range of PPAR receptor activation and nitric oxide release combined with a high protein diet and anaerobic training program, enhances muscle building and fat loss. The L-arginine synergistically promotes protein synthesis and nitric oxide release. These physiological functions lead to increases in lean body mass, strength, endurance, recovery and loss of body fat. The test subject reported a weight gain of 5 lbs., a 25-pound increase in 1 repetition maximum (RM) bench press, and 6-repetition increase in initial 70 percent maximum bench press at the end of the L-arginine phytanate 4-week period as compared to baseline values. These increases contribute to the regulation of athletic function and thus lead to enhanced physical performance. […] During the final phase of the experiment, the test subject reported no increases in body weight, 1 repetition maximum bench press, or 70 percent maximum bench press.

[1] = experienced weight trained person, 3 grams orally post workout for 4 weeks, end of 4-week period compared to baseline
[2] = same subject, final phase after 4-week washout, orally in the same manner post workout for 4 weeks, result in words

Row | Structure (SMILES) | weight gain (experienced weight trained person, 3 grams orally post workout for 4 weeks as a beverage, end of 4-week period compared to baseline) | increase in 1 repetition maximum (RM) bench press [1] | increase in initial 70 percent maximum bench press [1] | 1 repetition maximum bench press change [2] | 70 percent maximum bench press change [2] | body weight change [2]
1 | CC(C)CCCC(C)CCCC(C)CCCC(C)CC(=O)O.N=C(N)NCCC[C@H](N)C(=O)O [L-arginine phytanate, 3,7,11,15-tetramethylhexadecanoic L-arginine salt] | 5 lbs. | 25 pound | 6 repetition |  |  | 
2 | CC(C)CCCC(C)CCCC(C)CCCC(C)CC(=O)O (stereo not drawn) [phytanic acid, 3,7,11,15-tetramethylhexadecanoic acid] |  |  |  | no increases | no increases | no increases; also recorded: decrease in body weight
